Source: the NIST ThermoML archive (doi:10.1016/j.jct.2016.08.006)
± gives the expanded uncertainty stated by the source.

Legend:
[1] = molar heat capacity at constant pressure; details: 101.3 kPa, Liquid, Small sample (50 mg) DSC
[2] = molar heat capacity at constant pressure; xn = mol fraction of the nth substance listed; details: 101.3 kPa, Liquid, Small sample (50 mg) DSC, x2 = 0

Row | SMILES | molar heat capacity at constant pressure ([1]; 303.2 K) [J/K/mol] | molar heat capacity at constant pressure ([1]; 308.2 K) [J/K/mol] | molar heat capacity at constant pressure ([1]; 313.2 K) [J/K/mol] | molar heat capacity at constant pressure ([1]; 318.2 K) [J/K/mol] | molar heat capacity at constant pressure ([1]; 323.2 K) [J/K/mol] | molar heat capacity at constant pressure ([1]; 328.2 K) [J/K/mol] | molar heat capacity at constant pressure ([1]; 333.2 K) [J/K/mol] | molar heat capacity at constant pressure ([1]; 338.2 K) [J/K/mol] | molar heat capacity at constant pressure ([1]; 343.2 K) [J/K/mol] | molar heat capacity at constant pressure ([1]; 348.2 K) [J/K/mol] | molar heat capacity at constant pressure ([1]; 353.2 K) [J/K/mol] | molar heat capacity at constant pressure ([2]; 303.2 K) [J/K/mol] | molar heat capacity at constant pressure ([2]; 308.2 K) [J/K/mol] | molar heat capacity at constant pressure ([2]; 313.2 K) [J/K/mol] | molar heat capacity at constant pressure ([2]; 318.2 K) [J/K/mol] | molar heat capacity at constant pressure ([2]; 323.2 K) [J/K/mol] | molar heat capacity at constant pressure ([2]; 328.2 K) [J/K/mol] | molar heat capacity at constant pressure ([2]; 333.2 K) [J/K/mol] | molar heat capacity at constant pressure ([2]; 338.2 K) [J/K/mol] | molar heat capacity at constant pressure ([2]; 343.2 K) [J/K/mol] | other results
1 | CNCCN(C)C [N,N,N'-trimethylethylenediamine] | 258.3 ± 8.6 | 260 ± 8.6 | 262.7 ± 8.7 | 265.3 ± 8.8 | 269.2 ± 8.9 | 272.7 ± 9 | 276 ± 9.2 | 278.9 ± 9.3 | 281.3 ± 9.3 | 283.4 ± 9.4 | 286.6 ± 9.5 |  |  |  |  |  |  |  |  |  | 
2 | NCCN1CCNCC1 [N-(β-aminoethyl)piperazine)] | 289.7 ± 9.6 | 290.8 ± 9.6 | 293.1 ± 9.7 | 294.7 ± 9.8 | 296.9 ± 9.8 | 298.5 ± 9.9 | 300.7 ± 10 | 302.2 ± 10 | 303.3 ± 10 | 303.6 ± 10 | 304.6 ± 10 |  |  |  |  |  |  |  |  |  | 
3 | Cc1ccccc1 [toluene] | 159.1 ± 5.3 | 160.4 ± 5.3 | 161.6 ± 5.4 | 163 ± 5.4 | 164.1 ± 5.4 | 165.5 ± 5.5 | 167 ± 5.5 | 168.6 ± 5.6 | 170.4 ± 5.7 | 172.8 ± 5.7 | 175.1 ± 5.8 |  |  |  |  |  |  |  |  |  | 
4 | O [water] | 75.26 ± 2.5 | 75.27 ± 2.5 | 75.29 ± 2.5 | 75.31 ± 2.5 | 75.29 ± 2.5 | 75.32 ± 2.5 | 75.41 ± 2.5 | 75.44 ± 2.5 | 75.48 ± 2.5 | 75.55 ± 2.5 | 75.78 ± 2.5 |  |  |  |  |  |  |  |  |  | 
5 | O [water] + CNCCN(C)C |  |  |  |  |  |  |  |  |  |  |  | 75.26 ± 2.5 | 75.27 ± 2.5 | 75.29 ± 2.5 | 75.31 ± 2.5 | 75.29 ± 2.5 | 75.32 ± 2.5 | 75.41 ± 2.5 | 75.44 ± 2.5 | 75.48 ± 2.5 | molar heat capacity at constant pressure ([2]; 348.2 K): 75.55 ± 2.5 J/K/mol; molar heat capacity at constant pressure ([2]; 353.2 K): 75.78 ± 2.5 J/K/mol
6 | O [water] + NCCN1CCNCC1 |  |  |  |  |  |  |  |  |  |  |  | 75.26 ± 2.5 | 75.27 ± 2.5 | 75.29 ± 2.5 | 75.31 ± 2.5 | 75.29 ± 2.5 | 75.32 ± 2.5 | 75.41 ± 2.5 | 75.44 ± 2.5 | 75.48 ± 2.5 | molar heat capacity at constant pressure ([2]; 348.2 K): 75.55 ± 2.5 J/K/mol; molar heat capacity at constant pressure ([2]; 353.2 K): 75.78 ± 2.5 J/K/mol
